ChEMBL document CHEMBL5291721, “A preclinical secondary pharmacology resource illuminates target-adverse drug reaction associations of marketed drugs” (Nat Commun, 2023)
Values belong to the compound of their own block, whether it stands above or below them.

Columns and labels:
Thromboxane A2 receptor [1] = target: T1, Thromboxane A2 receptor (Homo sapiens, UniProt P21731); assay type: functional
T1 sequence (P21731 whole entry): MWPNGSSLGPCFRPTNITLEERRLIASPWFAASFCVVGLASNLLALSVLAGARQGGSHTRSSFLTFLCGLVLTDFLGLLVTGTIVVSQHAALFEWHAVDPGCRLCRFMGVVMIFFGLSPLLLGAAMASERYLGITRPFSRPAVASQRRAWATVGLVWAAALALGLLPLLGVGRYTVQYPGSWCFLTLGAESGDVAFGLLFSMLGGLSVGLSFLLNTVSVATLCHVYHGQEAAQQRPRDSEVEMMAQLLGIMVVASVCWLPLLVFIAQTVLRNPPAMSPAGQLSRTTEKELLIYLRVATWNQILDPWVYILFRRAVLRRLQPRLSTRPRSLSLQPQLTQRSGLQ

Acetylcholinesterase = Acetylcholinesterase (Homo sapiens, UniProt P22303); assay type: functional
[2] = target: T2, Muscarinic acetylcholine receptor M5 (Homo sapiens, UniProt P08912)
T2 sequence (P08912 whole entry): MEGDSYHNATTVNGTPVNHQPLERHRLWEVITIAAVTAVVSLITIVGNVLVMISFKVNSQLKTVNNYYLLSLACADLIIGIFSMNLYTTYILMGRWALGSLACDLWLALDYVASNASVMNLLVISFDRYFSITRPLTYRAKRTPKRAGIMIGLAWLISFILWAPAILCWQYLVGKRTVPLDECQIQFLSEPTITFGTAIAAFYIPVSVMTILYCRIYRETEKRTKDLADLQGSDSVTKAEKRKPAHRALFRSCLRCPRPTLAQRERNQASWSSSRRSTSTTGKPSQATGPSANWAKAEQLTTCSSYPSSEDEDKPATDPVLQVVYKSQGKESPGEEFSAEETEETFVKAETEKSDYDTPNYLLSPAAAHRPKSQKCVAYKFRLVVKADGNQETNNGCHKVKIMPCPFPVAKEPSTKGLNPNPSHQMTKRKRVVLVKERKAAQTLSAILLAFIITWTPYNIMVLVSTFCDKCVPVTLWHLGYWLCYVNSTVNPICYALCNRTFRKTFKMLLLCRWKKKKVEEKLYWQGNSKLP

Androgen receptor [3] = target: T3, Androgen receptor (Rattus norvegicus, UniProt P15207); assay type: functional
T3 sequence (P15207 whole entry): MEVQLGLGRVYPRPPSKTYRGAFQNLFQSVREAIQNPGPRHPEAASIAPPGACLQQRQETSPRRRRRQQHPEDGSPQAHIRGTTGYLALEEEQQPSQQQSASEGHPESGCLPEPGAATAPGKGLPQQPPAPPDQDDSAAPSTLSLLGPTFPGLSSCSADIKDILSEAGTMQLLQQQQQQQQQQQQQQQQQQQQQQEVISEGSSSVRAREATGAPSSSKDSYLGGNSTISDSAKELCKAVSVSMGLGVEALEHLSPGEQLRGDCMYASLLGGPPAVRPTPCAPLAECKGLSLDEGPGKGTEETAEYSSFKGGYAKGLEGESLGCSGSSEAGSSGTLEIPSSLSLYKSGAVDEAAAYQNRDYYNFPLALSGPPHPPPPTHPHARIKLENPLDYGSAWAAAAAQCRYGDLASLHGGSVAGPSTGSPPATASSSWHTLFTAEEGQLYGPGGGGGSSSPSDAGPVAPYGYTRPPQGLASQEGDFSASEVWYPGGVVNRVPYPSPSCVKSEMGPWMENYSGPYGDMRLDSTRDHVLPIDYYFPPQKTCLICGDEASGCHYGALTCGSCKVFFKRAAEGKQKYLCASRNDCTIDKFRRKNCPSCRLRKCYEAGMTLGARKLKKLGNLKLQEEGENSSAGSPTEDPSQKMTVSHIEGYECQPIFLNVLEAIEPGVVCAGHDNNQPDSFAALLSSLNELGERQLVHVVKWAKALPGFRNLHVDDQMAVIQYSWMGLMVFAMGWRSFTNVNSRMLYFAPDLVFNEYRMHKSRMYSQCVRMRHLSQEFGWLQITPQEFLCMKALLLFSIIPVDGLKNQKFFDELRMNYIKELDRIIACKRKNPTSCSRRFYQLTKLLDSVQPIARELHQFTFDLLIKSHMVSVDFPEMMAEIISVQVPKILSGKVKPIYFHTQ

[4] = target: 5-hydroxytryptamine receptor 6 (Homo sapiens, UniProt P50406)
Thromboxane A2 receptor [5] = target: T1, Thromboxane A2 receptor; assay type: functional, cell-based
Androgen receptor [6] = target: T3, Androgen receptor
[7] = target: Hydroxycarboxylic acid receptor 2 (Homo sapiens, UniProt Q8TDS4)
[8] = target: Sodium channel protein type 5 subunit alpha (Homo sapiens, UniProt Q14524); assay type: functional, cell-based
[9] = target: Gamma-aminobutyric acid type B receptor subunit 1 (Homo sapiens, UniProt Q9UBS5)
Cannabinoid receptor 1 = Cannabinoid receptor 1 (Homo sapiens, UniProt P21554); assay type: functional
Adenosine receptor A1 = target: T4, Adenosine receptor A1 (Homo sapiens, UniProt P30542)
T4 sequence (P30542 whole entry): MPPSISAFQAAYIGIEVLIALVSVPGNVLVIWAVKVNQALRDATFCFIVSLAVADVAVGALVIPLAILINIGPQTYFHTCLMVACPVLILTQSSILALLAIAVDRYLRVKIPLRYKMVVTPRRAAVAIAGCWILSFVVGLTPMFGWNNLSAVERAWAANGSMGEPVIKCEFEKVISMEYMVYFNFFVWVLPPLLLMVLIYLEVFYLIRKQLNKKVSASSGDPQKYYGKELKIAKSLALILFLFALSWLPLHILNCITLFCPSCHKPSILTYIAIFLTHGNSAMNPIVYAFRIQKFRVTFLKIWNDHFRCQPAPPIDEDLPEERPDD

Androgen receptor [10] = target: T3, Androgen receptor; assay type: functional; remark: listed apart in the source
Also: assay procedure not described here.

Chain of 5-hydroxytryptamine receptor 6 (P50406 whole entry): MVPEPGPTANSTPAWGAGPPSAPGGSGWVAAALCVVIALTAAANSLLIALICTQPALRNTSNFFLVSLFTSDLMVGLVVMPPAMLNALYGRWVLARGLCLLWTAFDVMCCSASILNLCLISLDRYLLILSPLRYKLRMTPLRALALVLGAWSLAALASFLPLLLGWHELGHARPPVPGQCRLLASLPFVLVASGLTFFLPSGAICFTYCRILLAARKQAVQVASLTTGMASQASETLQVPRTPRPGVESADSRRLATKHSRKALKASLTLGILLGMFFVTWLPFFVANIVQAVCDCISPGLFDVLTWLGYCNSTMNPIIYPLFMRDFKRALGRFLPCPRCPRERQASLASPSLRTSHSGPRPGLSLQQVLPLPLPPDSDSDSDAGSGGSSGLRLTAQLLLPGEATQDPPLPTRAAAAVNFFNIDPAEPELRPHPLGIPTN
Chain of Acetylcholinesterase (P22303 whole entry): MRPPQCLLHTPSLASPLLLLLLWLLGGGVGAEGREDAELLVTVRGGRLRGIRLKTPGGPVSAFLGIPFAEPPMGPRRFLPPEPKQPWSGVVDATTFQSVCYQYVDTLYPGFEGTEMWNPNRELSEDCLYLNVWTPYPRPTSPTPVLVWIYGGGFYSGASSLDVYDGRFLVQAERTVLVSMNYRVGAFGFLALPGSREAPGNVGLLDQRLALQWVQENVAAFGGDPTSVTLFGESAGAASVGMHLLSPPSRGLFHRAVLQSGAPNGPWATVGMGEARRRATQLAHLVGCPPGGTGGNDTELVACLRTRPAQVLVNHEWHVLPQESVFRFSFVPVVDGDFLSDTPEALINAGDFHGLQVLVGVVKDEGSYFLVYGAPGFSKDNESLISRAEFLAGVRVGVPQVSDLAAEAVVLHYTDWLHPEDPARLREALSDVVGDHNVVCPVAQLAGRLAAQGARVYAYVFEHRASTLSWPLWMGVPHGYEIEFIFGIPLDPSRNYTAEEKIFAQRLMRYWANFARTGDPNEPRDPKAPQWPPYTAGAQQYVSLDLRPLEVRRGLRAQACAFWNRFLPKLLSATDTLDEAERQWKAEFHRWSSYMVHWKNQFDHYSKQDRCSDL
Chain of Hydroxycarboxylic acid receptor 2 (Q8TDS4 whole entry): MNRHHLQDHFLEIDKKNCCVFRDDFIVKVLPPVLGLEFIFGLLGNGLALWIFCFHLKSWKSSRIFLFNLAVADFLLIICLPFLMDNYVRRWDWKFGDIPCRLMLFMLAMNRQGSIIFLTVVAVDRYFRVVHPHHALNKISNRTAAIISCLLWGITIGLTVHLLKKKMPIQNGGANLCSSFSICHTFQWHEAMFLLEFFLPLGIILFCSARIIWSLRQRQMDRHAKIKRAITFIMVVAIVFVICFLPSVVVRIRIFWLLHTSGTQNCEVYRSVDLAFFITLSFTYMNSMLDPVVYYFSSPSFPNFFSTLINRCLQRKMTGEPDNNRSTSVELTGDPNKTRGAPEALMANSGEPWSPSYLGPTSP
Chain of Gamma-aminobutyric acid type B receptor subunit 1 (Q9UBS5 whole entry): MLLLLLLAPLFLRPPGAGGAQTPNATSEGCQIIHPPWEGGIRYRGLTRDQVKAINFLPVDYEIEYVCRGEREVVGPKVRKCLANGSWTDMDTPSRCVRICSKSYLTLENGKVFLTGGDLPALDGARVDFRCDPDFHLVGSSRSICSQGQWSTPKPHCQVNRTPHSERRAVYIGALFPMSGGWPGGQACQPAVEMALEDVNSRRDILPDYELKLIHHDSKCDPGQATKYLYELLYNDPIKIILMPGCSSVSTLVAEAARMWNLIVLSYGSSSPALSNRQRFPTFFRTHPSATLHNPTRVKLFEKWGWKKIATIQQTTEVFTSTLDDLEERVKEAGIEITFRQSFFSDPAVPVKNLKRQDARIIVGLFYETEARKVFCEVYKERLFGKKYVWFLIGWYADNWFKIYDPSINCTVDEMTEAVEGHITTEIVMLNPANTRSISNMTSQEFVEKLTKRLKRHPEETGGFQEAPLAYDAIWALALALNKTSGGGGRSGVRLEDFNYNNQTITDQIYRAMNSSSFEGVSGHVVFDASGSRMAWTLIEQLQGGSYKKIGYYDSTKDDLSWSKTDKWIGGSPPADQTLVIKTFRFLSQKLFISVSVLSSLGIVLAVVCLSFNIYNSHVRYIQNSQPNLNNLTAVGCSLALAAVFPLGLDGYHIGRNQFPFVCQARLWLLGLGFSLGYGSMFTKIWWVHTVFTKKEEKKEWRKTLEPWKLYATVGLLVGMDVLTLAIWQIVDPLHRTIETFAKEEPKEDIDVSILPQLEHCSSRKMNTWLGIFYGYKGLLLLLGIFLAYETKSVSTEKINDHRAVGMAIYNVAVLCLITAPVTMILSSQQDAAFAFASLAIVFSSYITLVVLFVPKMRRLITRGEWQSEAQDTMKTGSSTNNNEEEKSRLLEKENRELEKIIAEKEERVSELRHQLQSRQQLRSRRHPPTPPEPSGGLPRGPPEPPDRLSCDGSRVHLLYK
Chain of Sodium channel protein type 5 subunit alpha (Q14524 whole entry): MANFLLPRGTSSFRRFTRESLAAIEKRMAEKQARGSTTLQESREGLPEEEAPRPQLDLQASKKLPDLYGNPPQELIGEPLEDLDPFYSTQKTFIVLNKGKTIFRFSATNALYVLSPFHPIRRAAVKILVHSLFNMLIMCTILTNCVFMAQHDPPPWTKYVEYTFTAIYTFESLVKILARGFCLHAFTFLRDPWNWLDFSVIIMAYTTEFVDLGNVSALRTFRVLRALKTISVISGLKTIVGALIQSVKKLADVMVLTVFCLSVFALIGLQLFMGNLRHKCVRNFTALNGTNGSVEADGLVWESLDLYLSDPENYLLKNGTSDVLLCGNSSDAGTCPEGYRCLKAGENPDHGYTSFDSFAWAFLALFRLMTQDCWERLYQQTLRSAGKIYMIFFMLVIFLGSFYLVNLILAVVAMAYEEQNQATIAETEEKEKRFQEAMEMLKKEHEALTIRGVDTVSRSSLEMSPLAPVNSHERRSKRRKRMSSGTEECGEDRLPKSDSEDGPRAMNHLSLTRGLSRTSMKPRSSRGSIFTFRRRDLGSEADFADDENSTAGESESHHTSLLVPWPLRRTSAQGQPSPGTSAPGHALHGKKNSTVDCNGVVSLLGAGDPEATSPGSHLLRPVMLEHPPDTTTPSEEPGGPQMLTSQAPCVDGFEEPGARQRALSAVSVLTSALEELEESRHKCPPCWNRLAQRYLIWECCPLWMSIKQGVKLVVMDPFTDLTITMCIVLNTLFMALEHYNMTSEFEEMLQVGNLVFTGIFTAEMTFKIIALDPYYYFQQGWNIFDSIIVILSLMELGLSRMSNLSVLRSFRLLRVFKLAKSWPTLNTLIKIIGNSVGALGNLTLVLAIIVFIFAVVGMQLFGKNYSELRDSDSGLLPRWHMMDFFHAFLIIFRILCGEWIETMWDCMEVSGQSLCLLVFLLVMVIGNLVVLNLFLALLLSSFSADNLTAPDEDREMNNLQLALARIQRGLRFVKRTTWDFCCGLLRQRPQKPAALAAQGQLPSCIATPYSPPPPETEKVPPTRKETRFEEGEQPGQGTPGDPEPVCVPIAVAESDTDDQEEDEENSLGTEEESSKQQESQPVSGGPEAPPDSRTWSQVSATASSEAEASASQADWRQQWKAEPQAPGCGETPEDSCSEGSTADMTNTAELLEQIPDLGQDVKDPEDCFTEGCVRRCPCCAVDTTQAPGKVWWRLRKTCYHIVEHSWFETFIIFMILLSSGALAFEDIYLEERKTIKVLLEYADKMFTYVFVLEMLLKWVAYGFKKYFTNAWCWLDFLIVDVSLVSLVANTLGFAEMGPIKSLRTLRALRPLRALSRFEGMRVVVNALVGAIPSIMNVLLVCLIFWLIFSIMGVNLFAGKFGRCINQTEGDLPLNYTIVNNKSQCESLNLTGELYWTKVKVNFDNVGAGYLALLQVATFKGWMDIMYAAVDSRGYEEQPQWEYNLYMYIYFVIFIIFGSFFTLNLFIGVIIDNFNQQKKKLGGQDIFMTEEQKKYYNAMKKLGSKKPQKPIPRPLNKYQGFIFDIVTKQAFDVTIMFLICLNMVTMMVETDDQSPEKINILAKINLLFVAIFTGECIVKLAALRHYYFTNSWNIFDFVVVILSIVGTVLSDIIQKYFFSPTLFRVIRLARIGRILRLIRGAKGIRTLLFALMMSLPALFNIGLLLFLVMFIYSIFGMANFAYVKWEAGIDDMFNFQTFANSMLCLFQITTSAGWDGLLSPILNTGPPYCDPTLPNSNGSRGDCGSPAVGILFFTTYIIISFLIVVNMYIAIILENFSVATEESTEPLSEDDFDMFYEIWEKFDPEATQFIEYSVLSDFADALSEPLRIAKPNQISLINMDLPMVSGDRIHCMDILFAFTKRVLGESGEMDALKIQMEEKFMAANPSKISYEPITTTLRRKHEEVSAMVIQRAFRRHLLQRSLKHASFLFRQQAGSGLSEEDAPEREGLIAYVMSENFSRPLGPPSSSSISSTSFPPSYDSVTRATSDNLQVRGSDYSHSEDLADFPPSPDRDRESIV
Chain of Cannabinoid receptor 1 (P21554 whole entry): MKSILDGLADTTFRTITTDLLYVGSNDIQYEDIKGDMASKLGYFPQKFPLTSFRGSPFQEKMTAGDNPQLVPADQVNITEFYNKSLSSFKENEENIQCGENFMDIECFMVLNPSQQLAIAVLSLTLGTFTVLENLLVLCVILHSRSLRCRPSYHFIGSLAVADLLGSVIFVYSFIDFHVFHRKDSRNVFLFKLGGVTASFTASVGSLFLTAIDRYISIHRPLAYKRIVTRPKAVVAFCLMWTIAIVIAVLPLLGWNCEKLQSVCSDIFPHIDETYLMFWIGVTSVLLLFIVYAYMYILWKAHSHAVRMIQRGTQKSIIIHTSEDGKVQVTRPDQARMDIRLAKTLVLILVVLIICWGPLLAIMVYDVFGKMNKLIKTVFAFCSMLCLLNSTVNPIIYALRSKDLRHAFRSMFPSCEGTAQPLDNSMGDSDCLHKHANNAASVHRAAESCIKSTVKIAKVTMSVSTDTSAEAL

Compound: Cc1c(C(=O)NN2CCCCC2)nn(-c2ccc(Cl)cc2Cl)c1-c1ccc(Cl)cc1 [RIMONABANT]
- AC50 (Thromboxane A2 receptor [1]): > 30 µM
- AC50 (Acetylcholinesterase): > 30 µM
- AC50 [2]: > 10 µM
- AC50 (Androgen receptor [3]): > 30 µM
- AC50 [4]: > 10 µM
- AC50 (Thromboxane A2 receptor [5]): > 30 µM
- AC50 (Androgen receptor [6]): > 30 µM

- AC50 [7]: > 10 µM
- AC50 (Androgen receptor [6]): > 30 µM
Compound: Clc1ccc2nsnc2c1NC1=NCCN1 [TIZANIDINE]

- AC50 [7]: > 10 µM
Compound: CCOC(=O)[C@H](CCc1ccccc1)N[C@@H](C)C(=O)N1[C@H](C(=O)O)C[C@@H]2CCC[C@@H]21
- AC50 [8]: > 30 µM

Compound: C[C@@H](O)[C@H]1C(=O)N2C(C(=O)O)=C(S[C@@H]3CN[C@H](C(=O)N(C)C)C3)[C@H](C)[C@H]12 [MEROPENEM]
- AC50 (Thromboxane A2 receptor [1]): > 300 µM
- AC50 (Acetylcholinesterase): > 300 µM
- AC50 (Thromboxane A2 receptor [5]): > 300 µM

- AC50 (Androgen receptor [3]): > 30 µM
Compound: C1CCC(C(CC2CCCCN2)C2CCCCC2)CC1 (stereo unspecified) [PERHEXILINE]

Compound: CS(=O)(=O)c1ccc(C2=C(c3ccccc3)C(=O)OC2)cc1 [ROFECOXIB]
- AC50 [9]: > 10 µM
- AC50 (Cannabinoid receptor 1): > 10 µM
- AC50 [2]: > 10 µM
- AC50 [4]: > 10 µM

Compound: Cn1nnc2c(C(N)=O)ncn2c1=O [TEMOZOLOMIDE]
- AC50 (Thromboxane A2 receptor [1]): > 30 µM
- AC50 [9]: > 10 µM
- AC50 (Cannabinoid receptor 1): > 10 µM
- AC50 (Acetylcholinesterase): > 30 µM
- AC50 [2]: > 10 µM
- AC50 [4]: > 10 µM
- AC50 (Thromboxane A2 receptor [5]): > 30 µM

Compound: CCc1oc2ccccc2c1C(=O)c1cc(I)c(O)c(I)c1 [BENZIODARONE]
- AC50 (Adenosine receptor A1): 18.2 µM

- AC50 [9]: > 10 µM
Compound: CCCN1C[C@H](CSC)C[C@@H]2c3cccc4[nH]cc(c34)C[C@H]21 [PERGOLIDE]

- AC50 [7]: > 10 µM
- AC50 (Androgen receptor [6]): > 30 µM
Compound: C[C@]12CCC(=O)C=C1CC[C@@H]1[C@@H]2[C@@H](O)C[C@@]2(C)[C@H]1CC[C@]2(O)C(=O)CO [HYDROCORTISONE]

Compound: COc1ccc(CC(C)(C)NC[C@H](O)c2cc(O)cc3c2OCC(=O)N3)cc1 [OLODATEROL]
- AC50 (Acetylcholinesterase): > 30 µM
- AC50 (Androgen receptor [3]): > 30 µM
- AC50 [8]: > 50 µM

Compound: Cc1cn([C@H]2C[C@H](N=[N+]=[N-])[C@@H](CO)O2)c(=O)[nH]c1=O [ZIDOVUDINE]
- AC50 [9]: > 10 µM
- AC50 [7]: > 10 µM
- AC50 [8]: > 30 µM

Compound: c1ccc([C@H]2CN3CCSC3=N2)cc1 [LEVAMISOLE]
- AC50 (Thromboxane A2 receptor [1]): > 30 µM
- AC50 (Acetylcholinesterase): > 30 µM
- AC50 (Thromboxane A2 receptor [5]): > 30 µM
- AC50 [8]: > 50 µM

Compound: O=C(O[C@H]1C[C@H]2CC[C@@H](C1)[N+]21CCCC1)C(O)(c1ccccc1)c1ccccc1 [TROSPIUM]
- AC50 (Androgen receptor [3]): > 30 µM
- AC50 (Androgen receptor [10]): > 30 µM

Compound: CC(C)C[C@H]1C(=O)N2CCC[C@H]2[C@]2(O)O[C@](NC(=O)[C@@H]3C=C4c5cccc6[nH]c(Br)c(c56)C[C@H]4N(C)C3)(C(C)C)C(=O)N12 [BROMOCRIPTINE]
- AC50 (Thromboxane A2 receptor [1]): > 30 µM
- AC50 (Acetylcholinesterase): > 30 µM
- AC50 (Thromboxane A2 receptor [5]): > 30 µM

Compound: c1cnc(N2CCN(Cc3ccc4c(c3)OCO4)CC2)nc1 [PIRIBEDIL]
- AC50 (Thromboxane A2 receptor [1]): > 30 µM
- AC50 (Acetylcholinesterase): > 30 µM
- AC50 (Thromboxane A2 receptor [5]): > 30 µM

- AC50 [7]: > 10 µM
Compound: CC1=C(C(=O)O)N2C(=O)[C@@H](NC(=O)[C@H](N)c3ccccc3)[C@H]2SC1 [CEPHALEXIN ANHYDROUS]

Compound: C=CCc1ccccc1OCC(O)CNC(C)C (stereo unspecified) [ALPRENOLOL]
- AC50 (Androgen receptor [3]): > 30 µM
- AC50 (Androgen receptor [10]): > 30 µM
